From the RepoRT retention time repository

Assay: HILIC, HILICON iHILIC-(P) Classic, HILIC, PEEK, 50 × 2.1 mm, 5 µm, 30 °C, 0.12 mL/min, estimated dead time 0.92 min; A: water + 20 mM ammonium carbonate; B: acetonitrile; gradient (min/%B) 0/80 1/80 21/20 21.5/20 26.5/20 27.5/80 35/80
Details: stereoisomer not certain

`NC(CO)C(=O)O` (configuration not stated) [Serine] showed an LC retention time of 9.56 min.
In the case of `Nc1nc2c(ncn2C2OC(COP(=O)(O)O)C(O)C2O)c(=O)[nH]1` (configuration not stated) [GMP], the LC retention time is reported as 13.9 min.
Work on `NC(=O)C1=CN(C2OC(COP(=O)(O)OP(=O)(O)OCC3OC(n4cnc5c(N)ncnc54)C(O)C3O)C(O)C2O)C=CC1` (configuration not stated) [NADH] yielded an LC retention time of 9.95 min.
In the case of `Nc1ncnc2c1ncn2C1OC(COP(=O)(O)OP(=O)(O)OP(=O)(O)O)C(O)C1O` (configuration not stated) [ATP], the LC retention time is reported as 13.9 min.
`NC(=O)CCC(N)C(=O)O` (configuration not stated) [Glutamine] gave an LC retention time of 8.86 min.
Compound `CC(=O)NC(CC(=O)O)C(=O)O` (configuration not stated) [N-Acetylaspartic acid] has an LC retention time of 9.49 min.
Compound `CC(C)C(N)C(=O)O` (configuration not stated) [Valine] has an LC retention time of 6.97 min.
In the case of `NC(=O)C1=CN(C2OC(COP(=O)(O)OP(=O)(O)OCC3OC(n4cnc5c(N)ncnc54)C(OP(=O)(O)O)C3O)C(O)C2O)C=CC1` (configuration not stated) [NADPH], the LC retention time is reported as 16.3 min.
`NC(CCC(=O)O)C(=O)O` (configuration not stated) [Glutamic acid] gave an LC retention time of 10.2 min.
With `CC(=O)SCCNC(=O)CCNC(=O)C(O)C(C)(C)COP(=O)(O)OP(=O)(O)OCC1OC(n2cnc3c(N)ncnc32)C(O)C1OP(=O)(O)O` (configuration not stated) [Acetyl-CoA] the LC retention time was 8.59 min.
With `CC(O)C(=O)O` (configuration not stated) [Lactic Acid] the LC retention time was 3.22 min.
With `O=C(O)CCC(=O)O` [Succinic Acid] the LC retention time was 12.1 min.
With `NC(=O)c1ccc[n+](C2OC(COP(=O)(O)OP(=O)(O)OCC3OC(n4cnc5c(N)ncnc54)C(O)C3O)C(O)C2O)c1` (configuration not stated) [NAD] the LC retention time was 9.43 min.
Compound `CCC(C)C(N)C(=O)O` (configuration not stated) [Isoleucine] has an LC retention time of 6.75 min.
For `NC(=O)c1ccc[n+](C2OC(COP(=O)([O-])O)C(O)C2O)c1` (configuration not stated) [NMN], the LC retention time was 9.99 min.
`NC(Cc1c[nH]c2ccccc12)C(=O)O` (configuration not stated) [Tryptophan] gave an LC retention time of 6.31 min.
`Nc1ccn(C2OC(CO)C(O)C2O)c(=O)n1` (configuration not stated) [Cytidine] showed an LC retention time of 6.28 min.
For `CC(O)C(N)C(=O)O` (configuration not stated) [Threonine], the LC retention time was 8.47 min.
In the case of `C=C(OP(=O)(O)O)C(=O)O` [PEP], the LC retention time is reported as 13.6 min.
`O=C(O)C(CO)OP(=O)(O)O` (configuration not stated) [Phosphoglyceric acid A] gave an LC retention time of 13.6 min.
With `O=P(O)(O)OCC(O)CO` (configuration not stated) [Glycerol-3-phosphate] the LC retention time was 10.9 min.
For `O=c1ccn(C2OC(COP(=O)(O)OP(=O)(O)O)C(O)C2O)c(=O)[nH]1` (configuration not stated) [UDP], the LC retention time was 12.3 min.
`Nc1ncnc2c1ncn2C1OC(CO)C(O)C1O` (configuration not stated) [Adenosine] showed an LC retention time of 3.76 min.
Compound `Nc1ccn(C2OC(COP(=O)(O)OP(=O)(O)O)C(O)C2O)c(=O)n1` (configuration not stated) [CDP] has an LC retention time of 13.2 min.
For `O=C(O)CCCCC1SCC2NC(=O)NC21` (configuration not stated) [Biotin], the LC retention time was 3.76 min.
With `NCCCC(N)C(=O)O` (configuration not stated) [Ornithine] the LC retention time was 17.7 min.
In the case of `NC(=O)CC(N)C(=O)O` (configuration not stated) [Asparagine], the LC retention time is reported as 11.1 min.
Work on `Nc1ccn(C2OC(COP(=O)(O)O)C(O)C2O)c(=O)n1` (configuration not stated) [CMP] yielded an LC retention time of 10.8 min.
Work on `O=C(O)CC(=O)O` [Malonic Acid] yielded an LC retention time of 9.63 min.
`CSCCC(N)C(=O)O` (configuration not stated) [Methionine] gave an LC retention time of 6.99 min.
`O=c1ccn(C2OC(COP(=O)(O)OP(=O)(O)OP(=O)(O)O)C(O)C2O)c(=O)[nH]1` (configuration not stated) [UTP] showed an LC retention time of 14.1 min.
Compound `NCCCCC(N)C(=O)O` (configuration not stated) [Lysine] has an LC retention time of 18.4 min.
With `Nc1nc2c(ncn2C2OC(COP(=O)(O)OP(=O)(O)OP(=O)(O)O)C(O)C2O)c(=O)[nH]1` (configuration not stated) [GTP] the LC retention time was 16.9 min.
Work on `NC(CCC(=O)NC(CS)C(=O)NCC(=O)O)C(=O)O` (configuration not stated) [GSH] yielded an LC retention time of 8.95 min.
Work on `NC(CCC(=O)NC(CSSCC(NC(=O)CCC(N)C(=O)O)C(=O)NCC(=O)O)C(=O)NCC(=O)O)C(=O)O` (configuration not stated) [GSSG] yielded an LC retention time of 15.6 min.
In the case of `O=C(O)C1(O)CC(O)C(O)C(O)C1` (configuration not stated) [Quinic Acid], the LC retention time is reported as 6.75 min.
For `O=c1ccn(C2OC(COP(=O)(O)O)C(O)C2O)c(=O)[nH]1` (configuration not stated) [UMP], the LC retention time was 9.59 min.
For `Nc1ncnc2c1ncn2C1OC(COP(=O)(O)O)C(O)C1O` (configuration not stated) [AMP], the LC retention time was 8.62 min.
For `Cc1ncc(C[n+]2csc(CCO)c2C)c(N)n1` [Thiamine], the LC retention time was 12.7 min.
Compound `Nc1nc2ncc(CNc3ccc(C(=O)NC(CCC(=O)O)C(=O)O)cc3)nc2c(=O)[nH]1` (configuration not stated) [Folic Acid] has an LC retention time of 14.4 min.
In the case of `NC(Cc1ccccc1)C(=O)O` (configuration not stated) [Phenylalanine], the LC retention time is reported as 5.37 min.
For `O=C1OC(C(O)CO)C(O)=C1O` (configuration not stated) [Ascorbic Acid], the LC retention time was 9.51 min.
For `Nc1ncnc2nc[nH]c12` [Adenine], the LC retention time was 3.84 min.
With `NC(CSSCC(N)C(=O)O)C(=O)O` (configuration not stated) [Cystine] the LC retention time was 11.8 min.
In the case of `O=C(CO)COP(=O)(O)O` [Triose phosphate], the LC retention time is reported as 11.5 min.
`NC(Cc1ccc(O)cc1)C(=O)O` (configuration not stated) [Tyrosine] gave an LC retention time of 8.15 min.
For `CC(=O)NC1C(OP(=O)(O)OP(=O)(O)OCC2OC(n3ccc(=O)[nH]c3=O)C(O)C2O)OC(CO)C(O)C1O` (configuration not stated) [UDP-GlcNAc], the LC retention time was 11.9 min.
Compound `Nc1nc2c(ncn2C2OC(CO)C(O)C2O)c(=O)[nH]1` (configuration not stated) [Guanosine] has an LC retention time of 7.27 min.
In the case of `O=C(O)CC(O)(CC(=O)O)C(=O)O` [Citric acid], the LC retention time is reported as 16.5 min.
For `O=C(O)c1cccnc1` [Nicotinic acid], the LC retention time was 2.1 min.
For `Nc1nc2c(ncn2C2OC(COP(=O)(O)OP(=O)(O)O)C(O)C2O)c(=O)[nH]1` (configuration not stated) [GDP], the LC retention time was 14.8 min.
Compound `NC(=O)c1ccc[n+](C2OC(COP(=O)(O)OP(=O)(O)OCC3OC(n4cnc5c(N)ncnc54)C(OP(=O)(O)O)C3O)C(O)C2O)c1` (configuration not stated) [NADP] has an LC retention time of 13.4 min.
For `O=C(O)C1CCCN1` (configuration not stated) [Proline], the LC retention time was 7.48 min.
`CC(C)CC(N)C(=O)O` (configuration not stated) [Leucine] gave an LC retention time of 5.63 min.
In the case of `Nc1ncnc2c1ncn2C1OC(COP(=O)(O)OP(=O)(O)O)C(O)C1O` (configuration not stated) [ADP], the LC retention time is reported as 12.5 min.
With `O=C(O)CC(C(=O)O)C(O)C(=O)O` (configuration not stated) [Isocitric acid] the LC retention time was 15.8 min.
For `O=C(O)CC(O)C(=O)O` (configuration not stated) [Malic Acid], the LC retention time was 13 min.
